According to ChEMBL document CHEMBL1201862, “PubChem BioAssay data set” (2004):
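1) Cells in 96-well plates. 2) Compound, 48 h, 5 concentrations. 3) Linear interpolation between surrounding doses. 4) Unreached endpoint = highest concentration. Here, GI50 denotes the concentration required for 50% inhibition of growth.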 Activity calls are given as the source filed them. No stated cut-off is given here; in the data, active = GI50 up to about 1.1 µM and inactive = higher.

How the values were obtained:
Test in all cases: DTP human tumour cell line panel, 48 h
UACC-62 = tested on: UACC-62
SNB-75 = tested on: SNB-75
NCI-H226 = tested on: NCI-H226
MOLT-4 = tested on: MOLT-4
786-0 = tested on: 786-0
CAKI-1 = tested on: CAKI-1
SF-539 = tested on: SF-539
UACC-257 = tested on: UACC-257
HCT-15 = tested on: HCT-15
SR = tested on: SR
T47D = tested on: T47D
MCF7 = tested on: MCF7
SNB-19 = tested on: SNB-19
A498 = tested on: A498
RXF 393 = tested on: RXF 393
SN12C = tested on: SN12C
HCC 2998 = tested on: HCC 2998
LOX IMVI = tested on: LOX IMVI
SK-OV-3 = tested on: SK-OV-3
ACHN = tested on: ACHN
RPMI-8226 = tested on: RPMI-8226
OVCAR-4 = tested on: OVCAR-4
SF-268 = tested on: SF-268
SF-295 = tested on: SF-295
KM12 = tested on: KM12
M14 = tested on: M14
HT-29 = tested on: HT-29
OVCAR-3 = tested on: OVCAR-3
Hs-578T = tested on: Hs-578T
TK-10 = tested on: TK-10
U-251 = tested on: U-251
DU-145 = tested on: DU-145
COLO 205 = tested on: COLO 205
UO-31 = tested on: UO-31
SW-620 = tested on: SW-620
HOP-92 = tested on: HOP-92
EKVX = tested on: EKVX
IGROV-1 = tested on: IGROV-1
A549 = tested on: A549
BT-549 = tested on: BT-549
HCT-116 = tested on: HCT-116
MDA-MB-231 = tested on: MDA-MB-231
PC-3 = tested on: PC-3
HOP-62 = tested on: HOP-62
NCI/ADR-RES = tested on: NCI/ADR-RES
HL-60 = tested on: HL-60
SK-MEL-2 = tested on: SK-MEL-2
K562 = tested on: K562
CCRF-CEM = tested on: CCRF-CEM
MDA-MB-435 = tested on: MDA-MB-435
OVCAR-8 = tested on: OVCAR-8
OVCAR-5 = tested on: OVCAR-5
SK-MEL-28 = tested on: SK-MEL-28
NCI-H460 = tested on: NCI-H460
SK-MEL-5 = tested on: SK-MEL-5
NCI-H522 = tested on: NCI-H522
NCI-H23 = tested on: NCI-H23

SMILES: O=c1c(C(c2cc(OCc3ccccc3)cc(OCc3ccccc3)c2)c2c(O)oc3ccccc3c2=O)c(O)oc2ccccc12
- GI50 (UACC-62): 4.02 µM (inactive)
- GI50 (SNB-75): 3.37 µM (inactive)
- GI50 (NCI-H226): 9.64 µM (inactive)
- GI50 (MOLT-4): 3.91 µM (inactive)
- GI50 (786-0): 8.63 µM (inactive)
- GI50 (CAKI-1): 7.26 µM (inactive)
- GI50 (SF-539): 5.86 µM (inactive)
- GI50 (UACC-257): 13 µM (inactive)
- GI50 (HCT-15): 3.17 µM
- GI50 (SR): 3.28 µM (inactive)
- GI50 (T47D): 8.55 µM (inactive)
- GI50 (MCF7): 12.3 µM (inactive)
- GI50 (SNB-19): 3.74 µM (inactive)
- GI50 (A498): 12 µM (inactive)
- GI50 (RXF 393): 22.4 µM (inactive)
- GI50 (SN12C): 3.71 µM (inactive)
- GI50 (HCC 2998): 3.91 µM (inactive)
- GI50 (LOX IMVI): 15.3 µM (inactive)
- GI50 (SK-OV-3): 6.58 µM (inactive)
- GI50 (ACHN): 2.92 µM (inactive)
- GI50 (RPMI-8226): 1.66 µM (inactive)
- GI50 (OVCAR-4): 4.97 µM (inactive)
- GI50 (SF-268): 5.07 µM (inactive)
- GI50 (SF-295): 5.42 µM (inactive)
- GI50 (KM12): 4.19 µM (inactive)
- GI50 (M14): 7.13 µM (inactive)
- GI50 (HT-29): 4.15 µM (inactive)
- GI50 (OVCAR-3): 13.4 µM (inactive)
- GI50 (Hs-578T): 5.96 µM (inactive)
- GI50 (TK-10): 11.5 µM (inactive)
- GI50 (U-251): 4.78 µM (inactive)
- GI50 (DU-145): 6.35 µM (inactive)
- GI50 (COLO 205): 8.45 µM (inactive)
- GI50 (UO-31): 4.85 µM (inactive)
- GI50 (SW-620): 4.58 µM (inactive)
- GI50 (HOP-92): 2.69 µM (inactive)
- GI50 (EKVX): 9.04 µM (inactive)
- GI50 (IGROV-1): 14.1 µM (inactive)
- GI50 (A549): 7.05 µM (inactive)
- GI50 (BT-549): 5.01 µM (inactive)
- GI50 (HCT-116): 3.39 µM (inactive)
- GI50 (MDA-MB-231): 4.57 µM (inactive)
- GI50 (PC-3): 4 µM (inactive)
- GI50 (HOP-62): 10.3 µM (inactive)
- GI50 (NCI/ADR-RES): 17.6 µM (inactive)
- GI50 (HL-60): 2.51 µM (inactive)
- GI50 (SK-MEL-2): 3.86 µM (inactive)
- GI50 (K562): 3.35 µM (inactive)
- GI50 (CCRF-CEM): 2.42 µM (inactive)
- GI50 (MDA-MB-435): 4.83 µM (inactive)
- GI50 (OVCAR-8): 4.18 µM (inactive)
- GI50 (OVCAR-5): 11.8 µM (inactive)
- GI50 (SK-MEL-28): 12.7 µM (inactive)
- GI50 (NCI-H460): 3.45 µM (inactive)
- GI50 (SK-MEL-5): 6.59 µM (inactive)
- GI50 (NCI-H522): 8.61 µM (inactive)
- GI50 (NCI-H23): 4.42 µM (inactive)
